Assay: xn = mol fraction of the nth substance listed
Conditions: 100 kPa, Liquid, Taylor dispersion method, x1 = 0

SMILES	binary diffusion coefficient (273.2 K)	binary diffusion coefficient (293.2 K)	binary diffusion coefficient (298.2 K)	binary diffusion coefficient (313.2 K)	binary diffusion coefficient (333.2 K)	binary diffusion coefficient (353.2 K)
O=C[C@H](O)[C@@H](O)[C@@H](O)[C@H](O)CO [(+)-galactose] + O	3.19e-10 m2/s	6.25e-10 m2/s	7.06e-10 m2/s	1.01e-09 m2/s	1.51e-09 m2/s	2.17e-09 m2/s
O=C[C@@H](O)[C@H](O)[C@H](O)CO [D-(-)-arabinose] + O	3.59e-10 m2/s	6.82e-10 m2/s	7.73e-10 m2/s	1.11e-09 m2/s	1.67e-09 m2/s	2.37e-09 m2/s
O=C[C@H](O)[C@@H](O)[C@H](O)[C@H](O)CO [D-glucose] + O	3.23e-10 m2/s	6.05e-10 m2/s	6.76e-10 m2/s	9.97e-10 m2/s	1.49e-09 m2/s	2.13e-09 m2/s

The next lines start with the values.

binary diffusion coefficient (273.2 K)	binary diffusion coefficient (293.2 K)	binary diffusion coefficient (298.2 K)	binary diffusion coefficient (313.2 K)	binary diffusion coefficient (333.2 K)	binary diffusion coefficient (353.2 K)	SMILES
3.34e-10 m2/s	6.2e-10 m2/s	7.04e-10 m2/s	1.02e-09 m2/s	1.59e-09 m2/s	2.16e-09 m2/s	O=C[C@@H](O)[C@@H](O)[C@H](O)[C@H](O)CO [D-mannose] + O
2.55e-10 m2/s	4.87e-10 m2/s	5.46e-10 m2/s	7.92e-10 m2/s	1.17e-09 m2/s	1.69e-09 m2/s	OC[C@H]1O[C@@](CO)(O[C@H]2O[C@H](CO)[C@@H](O)[C@H](O)[C@H]2O)[C@@H](O)[C@@H]1O [D-sucrose] + O
3.48e-10 m2/s	6.65e-10 m2/s	7.69e-10 m2/s	1.11e-09 m2/s	1.64e-09 m2/s	2.33e-09 m2/s	O=C[C@H](O)[C@@H](O)[C@H](O)CO [D-xylose] + O

— the NIST ThermoML archive (doi:10.1021/je0601816)
